Measurements: patent US9796711B2, “Substituted pyrazolo[3,4-b]pyridin-6-carboxylic acids and method of use” (AbbVie S.àr.l., priority 2015, dated 2017)

Tests used:
[1] = biological target: T1, ΔF508-CFTR (Homo sapiens, UniProt P13569, DEL508-508); experiment: CFTR cell surface levels using HRP-tagged ΔF508-CFTR expressing CFBE cells, in the presence of a co-corrector; assay type: cell-based
T1 construct: host or cells: CFBE41o-, doxycycline-inducible
Summary of the method: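 Cells were seeded with 0.5 μg/mL doxycycline and held 68 h at 37 °C. Test compounds plus 3 μM co-corrector (final 0.1% DMSO) were then added for 20 h at 33 °C. Washed cells received HRP substrate, and luminescence was normalized between DMSO and 3 μM co-corrector controls.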

[2] = biological target: T1, ΔF508-CFTR; experiment: CFTR cell surface levels using HRP-tagged ΔF508-CFTR expressing CFBE cells, intrinsic corrector capacity; assay type: cell-based
Summary of the method: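 Here the cells express ΔF508-CFTR with horseradish peroxidase inserted in extracellular loop 4, so only rescued channel at the surface gives luminescent signal. Compounds act on their own, 20 h at the reduced temperature of 33 °C; values are percent activity relative to DMSO and a 3 μM corrector.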

[3] = HRP-tagged ΔF508-CFTR expressing CFBE cells, in the presence of 3 μM co-corrector
[4] = HRP-tagged ΔF508-CFTR expressing CFBE cells, in the presence of 3 μM co-corrector, read-out: EC50
[5] = HRP-tagged ΔF508-CFTR expressing CFBE cells, intrinsic corrector capacity (no co-corrector), 33° C., 20 hours
[6] = HRP-tagged ΔF508-CFTR expressing CFBE cells, intrinsic corrector capacity (no co-corrector), 33° C., 20 hours, read-out: EC50
[7] = HRP-tagged ΔF508-CFTR CFBE41o- cells, compounds alone (intrinsic corrector capacity), 20 hours at 33° C., positive control 3 μM corrector
[8] = HRP-tagged ΔF508-CFTR CFBE41o- cells, compounds alone (intrinsic corrector capacity), 20 hours at 33° C., read-out: EC50
[9] = HRP-tagged ΔF508-CFTR CFBE cells, compound alone (intrinsic corrector capacity), 20 hours at 33° C.

T1 sequence (P13569 with tags, fused parts or gaps DEL508-508): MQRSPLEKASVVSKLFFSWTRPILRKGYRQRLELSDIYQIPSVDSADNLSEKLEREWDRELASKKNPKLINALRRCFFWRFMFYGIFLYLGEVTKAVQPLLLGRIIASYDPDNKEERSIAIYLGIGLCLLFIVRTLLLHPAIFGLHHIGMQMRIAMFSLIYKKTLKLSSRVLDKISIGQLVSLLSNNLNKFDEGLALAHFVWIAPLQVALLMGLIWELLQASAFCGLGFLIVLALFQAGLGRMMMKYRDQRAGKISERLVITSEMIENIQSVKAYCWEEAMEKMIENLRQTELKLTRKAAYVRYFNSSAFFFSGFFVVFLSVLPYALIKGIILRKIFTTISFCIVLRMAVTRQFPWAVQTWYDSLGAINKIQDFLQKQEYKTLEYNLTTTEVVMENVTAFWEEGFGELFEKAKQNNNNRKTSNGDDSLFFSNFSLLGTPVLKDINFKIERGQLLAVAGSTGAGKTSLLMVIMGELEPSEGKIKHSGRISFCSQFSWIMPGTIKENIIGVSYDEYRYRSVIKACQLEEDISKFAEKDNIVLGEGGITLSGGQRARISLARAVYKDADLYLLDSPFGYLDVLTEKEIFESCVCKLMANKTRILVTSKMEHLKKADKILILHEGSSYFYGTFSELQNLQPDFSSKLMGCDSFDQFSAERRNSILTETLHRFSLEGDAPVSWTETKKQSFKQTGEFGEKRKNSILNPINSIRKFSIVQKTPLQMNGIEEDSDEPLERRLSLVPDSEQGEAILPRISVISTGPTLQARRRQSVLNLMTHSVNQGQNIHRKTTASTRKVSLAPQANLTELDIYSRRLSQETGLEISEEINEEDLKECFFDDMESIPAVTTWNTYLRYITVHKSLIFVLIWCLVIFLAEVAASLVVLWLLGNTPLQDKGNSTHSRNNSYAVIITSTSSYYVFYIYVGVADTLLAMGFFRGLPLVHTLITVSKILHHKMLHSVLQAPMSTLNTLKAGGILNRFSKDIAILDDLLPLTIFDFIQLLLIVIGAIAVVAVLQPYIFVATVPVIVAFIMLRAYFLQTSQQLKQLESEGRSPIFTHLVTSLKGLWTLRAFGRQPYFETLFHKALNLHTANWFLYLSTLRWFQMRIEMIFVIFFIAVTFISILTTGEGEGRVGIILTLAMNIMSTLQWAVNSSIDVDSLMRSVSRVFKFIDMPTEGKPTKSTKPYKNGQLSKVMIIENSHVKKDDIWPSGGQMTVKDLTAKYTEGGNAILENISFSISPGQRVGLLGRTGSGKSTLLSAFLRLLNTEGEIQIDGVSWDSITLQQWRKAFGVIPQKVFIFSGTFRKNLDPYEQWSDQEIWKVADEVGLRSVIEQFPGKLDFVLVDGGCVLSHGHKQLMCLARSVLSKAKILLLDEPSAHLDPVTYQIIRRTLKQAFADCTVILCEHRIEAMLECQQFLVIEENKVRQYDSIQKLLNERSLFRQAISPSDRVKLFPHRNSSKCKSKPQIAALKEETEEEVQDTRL

## CN(CCCN(C)C1CCCCC1)c1cc(C(=O)O)nc2c1c(C1CCC1)nn2-c1ccccc1 [compound 690, 3-cyclobutyl-4-[{3-[cyclohexyl(methyl)amino]propyl}(methyl)amino]-1-phenyl-1H-pyrazolo[3,4-b]pyridine-6-carboxylic acid]
[1]; [3]
  % Activation: 318.25%
[1]; [4]
  EC50: 2760 nM
[2]; [5]
  % Activation: 136.1%
[2]; [6]
  EC50: 1670 nM

## Cc1nn(-c2ccccc2)c2nc(C(=O)O)cc(O[C@H]3C[C@H](N4CCCCC4)C3)c12 [compound 345, 3-methyl-1-phenyl-4-{[trans-3-(piperidin-1-yl)cyclobutyl]oxy}-1H-pyrazolo[3,4-b]pyridine-6-carboxylic acid]
[1]; [3]
  % Activation: 129.4%
[1]; [4]
  EC50: 4170 nM
[2]; [7]
  % Activation: 23.411%
[2]; [8]
  EC50: 4170 nM

## O=C(O)c1cc(N2CC3CC3C2)c2c(C3CCC3)nn(-c3ccccc3)c2n1 (centres unmarked) [compound 406, 4-(3-azabicyclo[3.1.0]hexan-3-yl)-3-cyclobutyl-1-phenyl-1H-pyrazolo[3,4-b]pyridine-6-carboxylic acid]
[1]; [3]
  % Activation: 359.55%
[1]; [4]
  EC50: 641 nM
[2]; [5]
  % Activation: 182.5%
[2]; [6]
  EC50: 823 nM

## CC(C)(C)OC(=O)NC[C@@H]1CCN(c2cc(C(=O)O)nc3c2c(C2CCC2)nn3-c2ccccc2)C1 [compound 671, 4-[(3S)-3-{[(tert-butoxycarbonyl)amino]methyl}pyrrolidin-1-yl]-3-cyclobutyl-1-phenyl-1H-pyrazolo[3,4-b]pyridine-6-carboxylic acid]
[1]
  EC50: 943 nM
[1]; [3]
  % Activation: 357.4%
[2]
  EC50: 1610 nM
[2]; [5]
  % Activation: 190.1%

## O=C(O)c1cc(N2CCN3C[C@@H](F)C[C@H]3C2)c2c(C3CCC3)nn(-c3ccccc3)c2n1 [compound 515, 3-cyclobutyl-4-[(7S,8aS)-7-fluorohexahydropyrrolo[1,2-a]pyrazin-2(11/)-yl]-1-phenyl-1H-pyrazolo[3,4-b]pyridine-6-carboxylic acid]
[1]; [3]
  % Activation: 173.5%
[1]; [4]
  EC50: 3330 nM
[2]; [5]
  % Activation: 15.59%
[2]; [6]
  EC50: > 10000 nM

## O=C(O)c1cc(N2CCC(N3CCOCC3)CC2)c2c(C3CCC3)nn(-c3cc(F)ccc3F)c2n1 [compound 916, 3-cyclobutyl-1-(2,5-difluorophenyl)-4-[4-(morpholin-4-yl)piperidin-1-yl]-1H-pyrazolo[3,4-b]pyridine-6-carboxylic acid]
[1]; [3]
  % Activation: 362.05%
[1]; [4]
  EC50: 1380 nM
[2]; [9]
  % Activation: 165.25%
[2]; HRP-tagged ΔF508-CFTR CFBE cells, compound alone (intrinsic corrector capacity), 20 hours at 33° C., read-out: EC50
  EC50: 1670 nM

## Cc1cccc(-n2nc(C3CCC3)c3c(N4CCC(N5CCOCC5)CC4)cc(C(=O)O)nc32)c1 [compound 820, 3-cyclobutyl-1-(3-methylphenyl)-4-[4-(morpholin-4-yl)piperidin-1-yl]-1H-pyrazolo[3,4-b]pyridine-6-carboxylic acid]
[1]; [3]
  % Activation: 499.75%
[1]; [4]
  EC50: 123 nM
[2]; [5]
  % Activation: 351.3%
[2]; [6]
  EC50: 285 nM

## CCOCC1(F)CCN(c2cc(C(=O)O)nc3c2c(C2CCC2)nn3-c2ccccc2)CC1 [compound 461, 3-cyclobutyl-4-[4-(ethoxymethyl)-4-fluoropiperidin-1-yl]-1-phenyl-1H-pyrazolo[3,4-b]pyridine-6-carboxylic acid]
[1]; [3]
  % Activation: 328.05%
[1]; [4]
  EC50: 343 nM
[2]; [5]
  % Activation: 158.55%
[2]; [6]
  EC50: 818 nM

## O=C(O)c1cc(N2CCC(CN3CCCOCC3)CC2)c2c(C3CCC3)nn(-c3ccccc3)c2n1 [compound 834, 3-cyclobutyl-4-{4-[(1,4-oxazepan-4-yl)methyl]piperidin-1-yl}-1-phenyl-1H-pyrazolo[3,4-b]pyridine-6-carboxylic acid]
[1]; [3]
  % Activation: 403%
[1]; [4]
  EC50: 114 nM
[2]; [5]
  % Activation: 227.9%
[2]; [6]
  EC50: 241 nM

## CC(=O)N1CC(c2nn(-c3ccccc3)c3nc(C(=O)O)cc(-c4ccc(N5CCOCC5)cc4)c23)C1 [compound 78, 3-(1-acetylazetidin-3-yl)-4-[4-(morpholin-4-yl)phenyl]-1-phenyl-1H-pyrazolo[3,4-b]pyridine-6-carboxylic acid]
[1]; [3]
  % Activation: 132%
[1]; [4]
  EC50: > 10000 nM
[2]; [7]
  % Activation: 10.784%
[2]; [8]
  EC50: > 10000 nM

## CC(C)c1nn(-c2ccc(F)cc2)c2nc(C(=O)O)cc(N3CCC[C@@H](O)C3)c12 [compound 783, 1-(4-fluorophenyl)-4-[(3R)-3-hydroxypiperidin-1-yl]-3-(propan-2-yl)-1H-pyrazolo[3,4-b]pyridine-6-carboxylic acid]
[1]; [3]
  % Activation: 283.6%
[1]; [4]
  EC50: 1670 nM
[2]; [5]
  % Activation: 95.05%
[2]; [6]
  EC50: 1670 nM

## COC1CCN(C2CCN(c3cc(C(=O)O)nc4c3c(O)nn4-c3ccc(F)cc3)CC2)CC1 [compound 925, 1-(4-fluorophenyl)-3-hydroxy-4-(4-methoxy[1,4′-bipiperidin]-1′-yl)-1H-pyrazolo[3,4-b]pyridine-6-carboxylic acid]
[1]; [3]
  % Activation: 126.05%
[2]; [9]
  % Activation: 11.745%

## CC(C)c1nn(C2CCCCC2)c2nc(C(=O)O)cc(-c3ccnn3C)c12 [compound 370, 1-cyclohexyl-4-(1-methyl-1H-pyrazol-5-yl)-3-(propan-2-yl)-1H-pyrazolo[3,4-b]pyridine-6-carboxylic acid]
[1]; [3]
  % Activation: 133%
[1]; [4]
  EC50: > 10000 nM
[2]; [7]
  % Activation: 19.18%
[2]; [8]
  EC50: > 10000 nM

## CN1[C@@H]2CC[C@H]1C[C@@H](Oc1cc(C(=O)O)nc3c1c(C1CCC1)nn3-c1ccccc1)C2 [compound 621, 3-cyclobutyl-4-{[(3-endo)-8-methyl-8-azabicyclo[3.2.1]octan-3-yl]oxy}-1-phenyl-1H-pyrazolo[3,4-b]pyridine-6-carboxylic acid]
[1]; [3]
  % Activation: 294.75%
[1]; [4]
  EC50: 3140 nM
[2]; [5]
  % Activation: 89.46%
[2]; [6]
  EC50: 3330 nM

## O=C(O)c1cc(N2CCC([C@H](F)CO)CC2)c2c(C3CCC3)nn(-c3ccccc3)c2n1 [compound 457, 3-cyclobutyl-4-{4-[(1S)-1-fluoro-2-hydroxyethyl]piperidin-1-yl}-1-phenyl-1H-pyrazolo[3,4-b]pyridine-6-carboxylic acid]
[1]; [3]
  % Activation: 430.85%
[1]; [4]
  EC50: 392 nM
[2]; [5]
  % Activation: 240.3%
[2]; [6]
  EC50: 607 nM

## CC(C)N1CCN(C2CCN(c3cc(C(=O)O)nc4c3c(C3CCC3)nn4C3CCCCC3)CC2)CC1 [compound 880, 3-cyclobutyl-1-cyclohexyl-4-{4-[4-(propan-2-yl)piperazin-1-yl]piperidin-1-yl}-1H-pyrazolo[3,4-b]pyridine-6-carboxylic acid]
[1]; [3]
  % Activation: 446.95%
[1]; [4]
  EC50: 693 nM
[2]; [5]
  % Activation: 259.5%
[2]; [6]
  EC50: 169 nM

## CC(C)c1nn(-c2cccc(N3CC(C)(C)C3)c2)c2nc(C(=O)O)cc(-c3ccc(N4CCOCC4)cc3)c12 [compound 160, 1-[3-(3,3-dimethylazetidin-1-yl)phenyl]-4-[4-(morpholin-4-yl)phenyl]-3-(propan-2-yl)-1H-pyrazolo[3,4-b]pyridine-6-carboxylic acid]
[1]; [3]
  % Activation: 544.87%
[1]; [4]
  EC50: 329 nM
[2]; [7]
  % Activation: 318.83%
[2]; [8]
  EC50: 447 nM

## O=C(O)c1cc(OCC2CCC(F)(F)C2)c2c(C3CCC3)nn(-c3ccccc3)c2n1 (centres unmarked) [compound 435, 3-cyclobutyl-4-[(3,3-difluorocyclopentyl)methoxy]-1-phenyl-1H-pyrazolo[3,4-b]pyridine-6-carboxylic acid]
[1]; [3]
  % Activation: 290.05%
[1]; [4]
  EC50: 453 nM
[2]; [5]
  % Activation: 116.7%
[2]; [6]
  EC50: 773 nM

## COC1CCN(CC2CCN(c3cc(C(=O)O)nc4c3c(C3CCC3)nn4-c3ccccc3)CC2)CC1 [compound 841, 3-cyclobutyl-4-{4-[(4-methoxypiperidin-1-yl)methyl]piperidin-1-yl}-1-phenyl-1H-pyrazolo[3,4-b]pyridine-6-carboxylic acid]
[1]; [3]
  % Activation: 457.1%
[1]; [4]
  EC50: 314 nM
[2]; [5]
  % Activation: 225%
[2]; [6]
  EC50: 532 nM
